12 molecules from patent publication US8957024B2, “Composition and methods for reducing opioid-induced pruritus” (priority 2011, dated 2015) can be followed below.

Data set [1] has as its system HEK 293 cells expressing MOR1D alone. Briefly: Calcium imaging, cells expressing MOR1D alone. The data set is classed as cell-based, mouse.
The subject of data set [2] is mice. The following applies: mouse, in vivo.
For data set [3], the system named is mice. Nature of the data set: Von Frey assay, naive mice and CFA inflammatory pain model. The data set is classed as in vivo, mouse. The protocol:
In CFA induced inflammatory pain, mice received an injection of CFA (20 μl, Sigma) into the plantar of the right hindpaw. Mechanical sensitivity was assessed using von Frey assay.
Mechanical sensitivity was assessed using a set of calibrated von Frey filaments (Stoelting). Each filament was applied 5 consecutive times and the smallest filament that evoked reflexive flinches of the paw on 3 of the 5 trials was taken as paw withdrawal threshold.

Data set [4] concerns the target T1, Myc-GRPR (Mus musculus, UniProt P21729).
T1 construct: expressed in transfected cells
Nature of the data set: Receptor internalization assay (ELISA, immunofluorescence staining) in HEK 293 cells: GRPR. Type of data set: cell-based. As to conditions: agonist 1 μM, 30 min.

Data set [5] relates to mice. As to conditions: mouse, in vivo. This is another data set of the same source.
Data set [6] has as its system HEK 293 cells containing only GRPR. Nature of the data set: Calcium imaging, cells containing only GRPR. The data set is classed as cell-based, mouse.
The target of data set [7] is T2, HA-MOR1 (Mus musculus, UniProt P42866).
T2 construct: expressed in transfected cells
Nature of the data set: Receptor internalization assay (ELISA, immunofluorescence staining) in HEK 293 cells: MOR1. Type of data set: cell-based. As to conditions: HEK 293 cells expressing MOR1 only, or MOR1 and GRPR; agonist 1 μM. (In general: An ELISA detects its analyte on a solid surface through an enzyme-linked reagent.)

Data set [8] addresses T3, HA-MOR1D (Mus musculus, UniProt P42866).
T3 construct: expressed in transfected cells
Nature of the data set: Receptor internalization assay (ELISA, immunofluorescence staining) in HEK 293 cells: MOR1D. Type of data set: cell-based. The following applies: HEK 293 cells expressing MOR1D, or MOR1D and GRPR; agonist 1 μM.

The target in data set [9] is T4, GRPR/MOR1D interaction (Mus musculus, UniProt P21729).
T4 construct: co-IP analysis using the membrane extracts of the spinal cord injected with Tat-MOR1DCT and the vehicle; from tissue; host or cells: lumbar spinal cord membrane extract after intrathecal injection
The following applies: in vivo.

Data set [10] deals with mice. Briefly: Gastrin-releasing peptide induced scratching (GIS). The data set is classed as in vivo, mouse.
Data set [11] concerns MOR1D mRNA. Nature of the data set: qRT-PCR after i.t. siRNA: MOR1D mRNA. The data set is classed as in vivo, mouse. The following applies: spinal cord. The procedure:
(§1) Selective siRNA duplexes for mouse Oprm exons, PLCβ1/3 and IP3R3 were intrathecally injected daily for 3 consecutive days. Behavior testing and tissue harvest were carried out at 48 hr after the last injection. RNA was dissolved in diethyl pyrocarbonate-treated PBS and prepared immediately prior to administration by mixing the RNA solution with a transfection reagent, ExGen 500 (Fermentas). The final concentration of RNA was 1.25 μg/5 μl. siRNA or ExGen 500 alone (defined as vehicle) in 5 μl was delivered to the lumbar region of the spinal cord. The injection was given daily for 3 consecutive days (Luo et al., 2005; Tan et al., 2009). Behavior testing and tissue harvest were carried out 48 hr after the last injection.
(§2) LCM were performed as previously described (van Baarlen et al., 2009) with minor modifications. Frozen sections (30 μm thickness) of the lumber spinal cord were cut at −20° C. and stored at −80° C. […]
(§3) RNA was isolated from the LCM sample caps using the PicoPure RNA isolation kit (Arcturus) following manufacturer's recommendations. […] Quantitative PCR amplification was performed in 96-well plates on an Mx3000 QPCR system (Stratagene). […]
(§4) Expression of target mRNA was normalized to expression of 18S rRNA. The differences in mRNA expression between treatments were analyzed using the Comparative CT Method (Gallup et al., 2005). […]
A general note: Real-time PCR tracks product formation cycle by cycle.

Data set [12] concerns MOR1 mRNA. Briefly: qRT-PCR after i.t. siRNA: MOR1 mRNA. The data set is classed as in vivo, mouse. As to conditions: spinal cord. The procedure:
as §1, §2, §3, §4

The subject of data set [13] is HEK 293 cells co-expressing MOR1 and GRPR. Nature of the data set: Calcium imaging, cells co-expressing MOR1 and GRPR. Type of data set: cell-based, mouse.
Setting [14] is: HEK 293 cells expressing GRPR alone.

Entries after “also recorded” stand apart in the source; their conditions may differ.

T4 sequence (P21729 whole entry): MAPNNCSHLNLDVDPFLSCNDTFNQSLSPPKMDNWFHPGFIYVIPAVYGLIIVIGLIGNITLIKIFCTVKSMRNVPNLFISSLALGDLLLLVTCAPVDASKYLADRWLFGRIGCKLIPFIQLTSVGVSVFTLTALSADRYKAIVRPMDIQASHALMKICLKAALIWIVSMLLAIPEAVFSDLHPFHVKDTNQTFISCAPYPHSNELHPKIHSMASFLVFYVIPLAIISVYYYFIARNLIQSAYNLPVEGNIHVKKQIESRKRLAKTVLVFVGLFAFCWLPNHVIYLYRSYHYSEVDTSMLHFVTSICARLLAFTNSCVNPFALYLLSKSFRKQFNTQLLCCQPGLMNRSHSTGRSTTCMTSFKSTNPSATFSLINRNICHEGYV
T1 sequence (P21729 whole entry): as above

On to `CN1CC[C@]23c4c5ccc(O)c4O[C@H]2[C@@H](O)C=C[C@H]3[C@H]1C5` [morphine], for which, in [1], the “calcium response to agonist” value is reported as “neither morphine nor GRP generated a calcium response”. Also, in data set [2], the “time after which no scratches were seen” value stood at 40 min and the “time within which MIS increased dramatically” value is reported as at most 10 min. Further, the “mechanical threshold in CFA-treated mice” value in data set [3] (i.t. morphine 0.3 nmol, 24 hr after intraplantar CFA) is “significantly increased mechanical threshold”. The “agonist-induced GRPR internalization” value in data set [4] (HEK 293 cells co-expressing MOR1 and GRPR) is “failed to induce GRPR internalization; also recorded: when co-expressed with HA-MOR1D but not HA-MOR1”. In addition, the “agonist-induced GRPR internalization” value in data set [4] (setting [14]) is reported as “failed to induce GRPR internalization”. For the same molecule, in data set [5], the “MIA enhancement when the morphine dose increased from 0.3 nmol to 1.0 nmol” value is given as 81%; the “MIA in mice with acute morphine tolerance” value is “significant reduction of MIA relative to the saline control”; the “MIA in mice with chronic morphine tolerance” value is “significant reduction of MIA relative to the saline control; also recorded: showed antinociceptive tolerance”; the “MIA, dose effect of i.t. morphine” value is on record as “increased in a dose-dependent manner”. Moreover, in data set [5], the “duration of MIA” value is “maintained at a maximal level for at least one hr”. In data set [6], the “calcium response to agonist” value was “failed to evoke Ca2+ spikes”.
With `C[C@@H](NC(=O)[C@@H](N)Cc1ccc(O)cc1)C(=O)NCC(=O)N(C)[C@@H](Cc1ccccc1)C(=O)NCCO` [DAMGO], the “agonist-induced MOR1 internalization” value in data set [7] is recorded as “can be internalized”. The “agonist-induced MOR1D internalization” value in data set [8] is recorded as “can be internalized”. Moreover, the “agonist-induced GRPR internalization” value in data set [4] (setting [14]) is recorded as “cannot internalize GRPR”.
In the case of “AAACCCUGCAAGAGUUGCAuu (AAACCCUGCAAGAGUUGCAUU; chemistry not given here) [exon 7 siRNA, siRNA duplex for mouse Oprm exon 7]”, the “effect of siRNA knockdown on MIA” value in data set [5] is “had no effect on MIA”.
Consider YGRKKRRQRRRRNEEPSS [Tat-MOR1DCT], for which, in data set [9], the “amount of GRPR precipitated by MOR1D antibody (GRPR/MOR1D interaction)” value is “significantly reduced the amount of GRPR precipitated by MOR1D antibody; also recorded: markedly reduces co-immunoprecipitation of GRPR and MOR1D; also recorded: decreased GRPR/MOR1D interaction”. In addition, the “effect on GIS” value in data set [10] (mouse, in vivo) was “unperturbed; also recorded: without affecting GIS”. In addition, the “effect on MIA” value in data set [5] is given as “unperturbed; also recorded: had no effect on MIA”.
As for 2-APB, the “effect on MIA” value in data set [5] is “no effect on MIA”.
For the molecule “UGAGGAACCUUCUUCCUGAuu (UGAGGAACCUUCUUCCUGAUU; chemistry not given here) [exon 9 siRNA, siRNA duplex for mouse Oprm exon 9]”, the “spinal MOR1D mRNA level” value in [11] is recorded as “significantly reduced”. Moreover, the “effect of siRNA knockdown on GIS” value in data set [10] (mouse, in vivo) is reported as “no significant reduction of GIS; also recorded: not affected”. Moreover, the “effect of siRNA knockdown on MIA” value in data set [5] is reported as “had no effect on MIA”.
As to `COc1ccc2c(c1)CC[C@@H]1[C@@H]2CC[C@]2(C)[C@@H](NCCCCCCN3C(=O)C=CC3=O)CC[C@@H]12` [U73122], the “effect on MIA” value in [5] is on record as “did not impact MIA; also recorded: not significantly affected”.
As to D-Phe-6-Bn(6-13)OMe [GRPR antagonist], the “effect on analgesic effect of intrathecal morphine in CFA model” value in data set [3] (GRPR antagonist 1.0 nmol co-injection, morphine 0.3 nmol i.t.) is on record as “not significantly affected”. In addition, in [3] (i.t., without morphine), the “effect of the agent itself on acute pain, von Frey” value is reported as “no significant effect on acute pain; also recorded: did not significantly affect the acute pain”. For the same molecule, in data set [5], the “effect of the agent itself on acute pain, tail immersion assay” value is “no significant effect on acute pain; also recorded: did not significantly affect the acute pain” and the “effect on MIA” value is recorded as “remained unchanged; also recorded: not significantly affected”.
Regarding “UCUGGAAGCAGAAACUGCUuu (UCUGGAAGCAGAAACUGCUUU; chemistry not given here) [exon 4 siRNA, siRNA duplex for mouse Oprm exon 4]”, in [12], the “spinal MOR1 mRNA level” value is listed as “selectively decreased; also recorded: significantly knocked down”. Moreover, in [5], the “effect of siRNA knockdown on MIA” value was “markedly attenuated MIA; also recorded: significantly reduced morphine analgesic effect”.
Take gastrin-releasing peptide [GRP]: the figures for the “calcium response to agonist” value in [1] and in data set [13] were “neither morphine nor GRP generated a calcium response” and “they responded to GRP”, respectively. Besides, in data set [10] (i.t. GRP), the “GIS in MOR KO vs wild-type littermate mice” value is reported as “normal; also recorded: comparable”. Also, the “agonist-induced MOR1 internalization” value in data set [7] is “neither MOR1D nor MOR1 internalized”. The “agonist-induced MOR1D internalization” value in data set [8] is listed as “neither MOR1D nor MOR1 internalized; also recorded: failed to cause MOR1D internalization”.
On to `C=CCN1CC[C@]23c4c5ccc(O)c4O[C@H]2C(=O)CC[C@@]3(O)[C@H]1C5` [naloxone], for which the “effect on GIS” value in [10] (naloxone 3 mg/kg s.c.) is given as “did not change GIS; also recorded: not significantly affected”.
As to `COC(=O)/C=C/C(=O)N[C@@H]1CC[C@@]2(O)[C@H]3Cc4ccc(O)c5c4[C@@]2(CCN3CC2CC2)[C@H]1O5` [beta-FNA], the “effect on MIS” value in data set [2] is on record as “significantly blocked”.
